Results from EPA's ToxValDB 9.5 (doi:10.2903/j.efsa.2016.4503).

Legend:
Anas platyrhynchos = settings: acute; oral; unspecified; mortality
Apis mellifera = settings: acute, mortality
Bibionidae = settings: chronic/long-term; duration: 23 days; reproduction
Colinus virginianus = settings: acute; oral; mortality
Coturnix japonica = settings: chronic
Hypoaspis aculeifer = settings: chronic/long-term; reproduction
Oncorhynchus mykiss = settings: acute; duration: 96 hours; mortality
Pimephales promelas = settings: chronic/long-term; duration: 28 days
Tagia sp. = settings: chronic/long-term; reproduction
Aphidius rhopalosiphi = assay: LR50; higher = less toxic; settings: not reported; mortality

## Cc1ccc(-c2c(Cl)nc(C#N)n2S(=O)(=O)N(C)C)cc1
Anas platyrhynchos
  LD50: > 2000 mg/kg-day
Apis mellifera; dermal
  LD50: 9.52 µg/piece
Apis mellifera; oral, unspecified
  LD50: > 31.8 µg/piece
Bibionidae
  NOEC: 0.0117 mg/L
Colinus virginianus
  LD50: > 2000 mg/kg-day
Coturnix japonica
  NOAEL: 151 mg/kg-day
Hypoaspis aculeifer
  NOEC: 18.7 mg/kg
Oncorhynchus mykiss
  LC50: > 0.107 µg/mL
Pimephales promelas
  NOEC: 0.09 mg/L
Rattus norvegicus; acute, oral, mortality
  LD50: > 5000 mg/kg
Rattus norvegicus; chronic, duration: 2 years, organ weight
  NOAEL: 17 mg/kg-day
Rattus norvegicus; reproduction developmental, body weight
  NOAEL: 89 mg/kg-day
Rattus norvegicus; subchronic, duration: 90 days, oral, organ weight
  NOAEL: 29.5 mg/kg-day
Tagia sp.
  NOEC: 2 mg/kg
Aphidius rhopalosiphi
  LR50: > 209 g/ha
